Results: patent US9040563B2, “Dual inhibitors of farnesyltransferase and geranylgeranyltransferase I” (H. Lee Moffitt Cancer Center and Research Institute, Inc., priority 2010, dated 2015)
Like-named read-outs stand apart in the source and are kept apart here.

Tests used:
p27Kip1 = test: Western blot of p27Kip1 protein levels; assay type: cell-based; conditions: human cancer cells; FIG. 17
Excerpt: Mammalian target of rapamycin (mTOR) is a serine/threonine phosphatidylinositol 3-kinase-related kinase responsible for cell growth, proliferation, cell survival, protein synthesis, and transcription. Alteration of the mTOR pathway, either through activation of oncogenes or inactivation of tumor suppressors, disrupts a signaling equilibrium and causes malignant transformation. Studies have shown that phosphorylated S6 (pS6) is related to mTOR pathway alterations, and is useful in determining PI3K-based cancer therapies (Aziz, et al. Phosphatidylinositol-3-Kinase as a Therapeutic Target in Melanoma. Clin Cancer Res. 2009, 15; 3029-3036). Two breast adenocarcinoma and a pancreatic carcinoma cell line were treated with indicated concentrations of FGTI-2734, GGTI-2417 or FTI-2153. Protein extracts were run on a Western Blot using antibody against pS6 (ser240/244) (Cell Signaling Technology, Inc., Danvers, Mass.). […] Antibodies used were HDJ-2 (Lab Vision Corporation, Fremont, Calif.), Rapt (Santa Cruz Biotechnology, Santa Cruz, Calif.), K-Ras (EMD4 Biosciences (Calbiochem), Gibbstown, N.J.), P27 (BD Biosciences, San Jose, Calif.), Actin (Sigma-Aldrich, St. Louis, Mo.), Survivin (Santa Cruz Biotechnology, Santa Cruz, Calif.), and PARP (Roche, Indianapolis, Ind.).

[1] = system: geranylgeranylation of Rap1A; test: Whole cell inhibition of Rap1A processing (geranylgeranylation), immunoblot, oncogenic H-Ras-transformed NIH3T3 cells; assay type: cell-based, mouse; conditions: Mus musculus; whole cells, oncogenic H-Ras-transformed NIH3T3; n = 3 unless stated; read-out: Rap1A processing IC50
GGTase-I = GGTase-I (Homo sapiens, UniProt P49354+P53609); test: In vitro GGTase-I inhibition: incorporation of [3H]GGPP into recombinant H-Ras-CVLL; assay type: biochemical; conditions: average of n = 3 unless stated, errors are standard deviations, read-out: GGTase-1 IC50
[2] = system: Rap-1A geranylgeranylation; test: Western blot of Rap-1A geranylgeranylation/processing (antibody to un-geranylgeranylated Rap-1A) in treated cells; assay type: cell-based; conditions: MiaPaca, MDA-MB-468 and MDA-MB-231 human cancer cells; FIG. 13
Protocol: The ability of FGTI-2734 to inhibit HDJ-2 farnesylation and Rap-1A geranylgeranylation in human cancer cells was determined next. To this end, the MiaPaca pancreatic cancer cell line and 2 breast cancer cell lines (MDA-MB-468 and MDA-MB-231) were treated with various concentration of the dual inhibitor FGTI-2734, the GGT-1 inhibitor GGTI-2418 or the FT inhibitor FTI-2153 and processed for Western blotting.
(§1) Testing has shown that the dual farnesyltransferase and geranygeranyltransferase-I inhibitors are effective on pancreatic tumors (90% of all cases), colonic tumors (30% of all cases), lung tumors (30% of all cases), and breast tumors (10% of all cases). NIH-3T3 cells that overexpress oncogenic mutant K-Ras, seen in FIG. 14, and MDA-MB-231 breast cancer cells with a naturally occurring K-Ras mutation, seen in FIG. 15, were treated with indicated concentrations of FGTI-2734, GGTI-2417 or FTI-2153. FGTI-2734 but not FTI-2153 or GGTI-2417 inhibited K-Ras prenylation. As expected, GGTI-2417 inhibited the processing of Rap1 but not HDJ-2 whereas FTI-2153 inhibited the processing of HDJ-2 but not Rap1.
(§2) Mammalian target of rapamycin (mTOR) is a serine/threonine phosphatidylinositol 3-kinase-related kinase responsible for cell growth, proliferation, cell survival, protein synthesis, and transcription. Alteration of the mTOR pathway, either through activation of oncogenes or inactivation of tumor suppressors, disrupts a signaling equilibrium and causes malignant transformation. Studies have shown that phosphorylated S6 (pS6) is related to mTOR pathway alterations, and is useful in determining PI3K-based cancer therapies (Aziz, et al. Phosphatidylinositol-3-Kinase as a Therapeutic Target in Melanoma. Clin Cancer Res. 2009, 15; 3029-3036). Two breast adenocarcinoma and a pancreatic carcinoma cell line were treated with indicated concentrations of FGTI-2734, GGTI-2417 or FTI-2153. Protein extracts were run on a Western Blot using antibody against pS6 (ser240/244) (Cell Signaling Technology, Inc., Danvers, Mass.). […]

farnesylation of H-Ras = test: Whole cell inhibition of H-Ras processing (farnesylation), immunoblot, oncogenic H-Ras-transformed NIH3T3 cells; assay type: cell-based, mouse
K-Ras prenylation = test: Western blot of oncogenic K-Ras processing/prenylation; assay type: cell-based; conditions: NIH-3T3 overexpressing oncogenic mutant K-Ras (FIG. 14) and MDA-MB-231 (FIG. 15)
Protocol: as §1
as §2, with “3029-3036).” for “3029-3036). Two breast adenocarcinoma and a pancreatic carcinoma cell line were treated with indicated concentrations of FGTI-2734, GGTI-2417 or FTI-2153. Protein extracts were run on a Western Blot using antibody against pS6 (ser240/244) (Cell Signaling Technology, Inc., Danvers, Mass.).”

## Cn1cncc1CN(CCN(CC1CCCCC1)S(=O)(=O)c1ccccn1)c1ccc(C#N)cc1F [21b, N-(2-((4-cyano-2-fluorophenyl)((1-methyl-1H-imidazol-5-yl)methyl)amino)ethyl)-N-(cyclohexylmethyl)pyridine-2-sulfonamide]
p27Kip1
  p27Kip1 protein levels: induces
[1]
  IC50: 2700 ± 1500 nM
GGTase-I
  IC50: 520 ± 90 nM
[2]
  inhibition of Rap-1A geranylgeranylation: inhibited
Farnesylation of H-Ras; Mus musculus, NIH3T3, whole cells, oncogenic H-Ras-transformed NIH3T3, n = 3 unless stated, read-out: H-Ras processing IC50
  IC50: 88.7 ± 25.8 nM
Farnesylation of H-Ras; whole cells, NIH 3T3, values in nM, listed as FGTI-2734, read-out: H-Ras processing IC50 (whole cell)
  IC50: 89 ± 26 nM
K-Ras prenylation
  inhibition of K-Ras prenylation: inhibited
